According to PMC8512560, “Design, Synthesis, and Antipoliferative Activities of Novel Substituted Imidazole-Thione Linked Benzotriazole Derivatives” (Molecules, 2021):
Where “and” joins values, the source holds several entries; their conditions need not be identical. Equal values may be shown once. Read-outs that look alike come from different tables or passages of the source.

Key:
[1] = test system: MCF-7 human breast cancer cell line; assay: MTT viability assay, MCF-7; assay type: cell-based; details: mean ± SD of three independent experiments, read-out: Antiproliferative Activities IC50, MCF-7
Description: (§1) All the human tumour cell lines MCF-7, HL-60, HCT-116, and HUVEC were cultured in Dulbecco’s Modified Eagle’s Medium (DMEM) with 10% fetal bovine serum, 2 mM L-glutamine and 100 µg/mL penicillin/streptomycin. Cells were maintained at 37 °C in 5% CO2 in a humidified incubator. All cells were sub-cultured three times/week by trypsinization using TrypLE Express (1X).
(§2) The Benzotriazole compounds were evaluated for antiproliferative effect using the MTT viability assay of various cancer cell lines (MCF-7, HCT-116 and HL-60) and the normal human umbilical vein endothelial cell line (HUVEC) to calculate the relative IC50 values for each compound. Cells were seeded in triplicate in 96-well plates at a density of 10 × 10^3 cells/mL in a total volume of 200 µL per well. 0.1% of DMSO was used as a vehicle control. After this time, they were treated with 2 µL test compound which had been pre-prepared as stock solutions in ethanol to furnish the concentration range of study, 10 nM to 100 µM, and re-incubated for a further 72 h. The culture medium was then removed, and the cells washed with 100 µL phosphate buffered saline (PBS) and 50 µL MTT added, to reach a final concentration of 1 mg/mL MTT added. Cells were incubated for 2 h in darkness at 37 °C. At this point solubilisation was begun through the addition of […] DMSO and the cells maintained at room temperature in darkness for 20 min to ensure thorough colour diffusion before reading the absorbance. Plates were incubated for 72 h at 37 °C + 5% CO2. The MTT (5 mg/mL in PBS) was added and incubated for another 4 h, and the optical density was detected with a microplate reader at 570 nm. Results were expressed as percentage viability relative to vehicle control (100%). Dose response curves were plotted and IC50 values (concentration of drug resulting in 50% reduction in cell survival) were obtained using the commercial software package Prism (GraphPad Software, Inc., La Jolla, CA, USA). All the experiments were repeated in at least three independent experiments.

[2] = test system: HUVEC human umbilical vein endothelial cell line; assay: MTT viability assay, normal HUVEC cells; assay type: cell-based; details: 72 h, mean ± SD of three independent experiments
Description: as §1, §2

[3] = test system: HCT-116 human colon cancer cell line; assay: MTT viability assay, HCT-116; assay type: cell-based; details: mean ± SD of three independent experiments, read-out: Antiproliferative Activities IC50, HCT-116
Description: as §1, §2

[4] = test system: HL-60 human leukemia cancer cell line; assay: MTT viability assay, HL-60; assay type: cell-based; details: mean ± SD of three independent experiments, read-out: Antiproliferative Activities IC50, HL-60
Description: as §1, §2

[5] = test system: MCF-7, HL-60 and HCT-116 cancer cell lines; assay: MTT viability assay, values pooled over the cancer cell lines; assay type: cell-based, human; details: for IC50: Homo sapiens, MTT; for Fold more active than methyl-containing derivative BI2 (antiproliferative): relative to BI2, cell line not specified
Description: as §1, §2

[6] = test system: bovine brain tubulin; assay: Tubulin polymerization assay (turbidimetric, kit BK006); assay type: biochemical; details: read-out: Anti-Tubulin Activity IC50 ± SD (inhibition of tubulin polymerization)
Description: The assembly of purified bovine tubulin was monitored using a kit, BK006, purchased from Cytoskeleton Inc., (Denver, CO, USA). The assay was carried out in accordance with the manufacturer’s instructions using the standard assay conditions. Briefly, purified ([…]) in a buffer consisting of 80 mM PIPES (pH 6.9), 0.5 mM EGTA, 2 mM MgCl2, 1 mM GTP and 10% glycerol was incubated at 37 °C in the presence of either vehicle (2% (v/v) ddH2O), CA-4, benzotriazole compounds. Light was scattered proportionally to the concentration of polymerized microtubules in the assay. Therefore, the tubulin assembly was monitored turbidimetrically at 340 nm in a Spectramax 340 PC spectrophotometer (Molecular Devices, Sunnyvale, CA, USA). The concentration that inhibits tubulin polymerization by 50% (IC50) was determined using area under the curve (AUC). The AUC of the untreated controls were considered as 100% polymerization. The IC50 value for each compound was computed using GraphPad Prism Software.

[7] = test system: colchicine binding site of tubulin; assay: Colchicine site competitive binding assay ([3H]colchicine); details: tubulin and colchicine at 1 and 5 µM
Description: The affinity of Benzotriazole compounds to colchicine binding site was determined using a Colchicine Site Competitive Assay kit CytoDYNAMIX Screen15 (Cytoskeleton, Inc., Denver, CO, USA) using the standard protocol of the manufacturer to determine Ki values (μM). Biotin-labelled tubulin ([…]) and the test compounds (positive control colchicine, negative control vinblastine, G-1, fluorescent G-1, or 2-ME) in a 96-well plate (final volume: 100 μL). After incubating for 2 h at 37 °C with gentle shaking, streptavidin-labelled yttrium SPA beads (80 μg in 20 μL reaction buffer, PerkinElmer, Waltham, MA) were added to each well and incubated for 30 min at 4 °C. The plates were then read on a scintillation counter (Packard Instrument, Topcount Microplate Reader) and the percentage of inhibition was calculated.

[8] = MCF-7, HL-60 and HCT-116, read-out: IC50 values range over the three cancer cell lines
[9] = HL-60 and HCT-116 only, read-out: IC50 values range versus HL-60 and HCT-116 cells

| Compound | IC50 ([1]; Homo sapiens, MCF7, 72 h) | melting point | IC50 [2] | IC50 ([3]; Homo sapiens, HCT-116, 72 h) | IC50 ([4]; Homo sapiens, HL-60, 72 h) | IC50 [5, 8] | IC50 [6] | Fold more active than methyl-containing derivative BI2 (antiproliferative) [5] | Colchicine Binding % ± SD (inhibition of [3H]colchicine binding), 1 µM Drug [7] | Colchicine Binding % ± SD (inhibition of [3H]colchicine binding), 5 µM Drug [7] | IC50 ([1]; 72 h) | IC50 ([3]; 72 h) | IC50 ([4]; 72 h) | IC50 [5, 9] |
| --- | --- | --- | --- | --- | --- | --- | --- | --- | --- | --- | --- | --- | --- | --- |
| S=c1[nH]c(-n2nnc3ccccc32)cn1-c1ccccc1 [BI1, 4-(1H-Benzo[d][1,2,3]Triazol-1-yl)-1-Phenyl-1H-Imidazole-2(3H)-Thione] | 6.4 ± 0.18 µM | 175 to 177 °C | 63 ± 3.02 µM | 17.5 ± 1.13 µM | 5.23 ± 0.36 µM | – | – | – | – | – | – | – | – | – |
| Cc1ccc(-n2cc(-n3nnc4ccccc43)[nH]c2=S)cc1 [BI2, 4-(1H-Benzo[d][1,2,3]Triazol-1-yl)-1-(4-Methylphenyl)-1H-Imidazole-2(3H)-Thione] | 12.5 ± 0.36 µM | 178 to 180 °C | 12.2 ± 0.58 µM | 14.8 ± 0.95 µM | 37.1 ± 2.54 µM | > 10 µM | – | – | – | – | – | – | – | – |
| CCc1ccc(-n2cc(-n3nnc4ccccc43)[nH]c2=S)cc1 [BI3, 4-(1H-Benzo[d][1,2,3]Triazol-1-yl)-1-(4-Ethylphenyl)-1H-Imidazole-2(3H)-Thione] | 10.6 ± 0.31 µM | 150 to 152 °C | > 100 µM | 2.75 ± 0.18 µM | 3.91 ± 0.27 µM | – | 0.928 ± 0.04 µM | 3.8 fold | 65.38 ± 2% | 86.85 ± 2% | – | – | – | – |
| COc1ccc(-n2cc(-n3nnc4ccccc43)[nH]c2=S)cc1 [BI4, 4-(1H-Benzo[d][1,2,3]Triazol-1-yl)-1-(4-Methoxyphenyl)-1H-Imidazole-2(3H)-Thione] | 2.29 ± 0.07 µM | 175 to 177 °C | > 100 µM | – | 22.1 ± 1.52 µM | – | – | 2.5 fold | – | – | – | – | – | – |
| Oc1ccc(-n2cc(-n3nnc4ccccc43)[nH]c2=S)cc1 [BI5, 4-(1H-Benzo[d][1,2,3]Triazol-1-yl)-1-(4-Hydroxyphenyl)-1H-Imidazole-2(3H)-Thione] | 4.4 µM | 267 to 269 °C | 4.74 ± 0.23 µM | 2.1 µM | 1.1 µM | 1.51 to 15.5 µM | 0.49 µM and 0.497 µM | – | 61.78 ± 2% | 81.34 ± 2% | 4.45 ± 0.13 µM | 2.15 ± 0.14 µM | 1.18 ± 0.08 µM | – |
| S=c1[nH]c(-n2nnc3ccccc32)cn1-c1ccc(Cl)cc1 [BI6, 4-(1H-Benzo[d][1,2,3]Triazol-1-yl)-1-(4-Chlorophenyl)-1H-Imidazole-2(3H)-Thione] | 7.29 ± 0.21 µM | 187 to 189 °C | 27.4 ± 1.31 µM | 1.51 ± 0.12 µM | 3.28 ± 0.22 µM | 1.51 to 7.29 µM | 0.928 ± 0.03 µM | – | 63.23 ± 2% | 77.63 ± 2% | – | – | – | 1.51 to 7.38 µM |
| S=c1[nH]c(-n2nnc3ccccc32)cn1-c1ccccc1Cl [BI7, 4-(1H-Benzo[d][1,2,3]Triazol-1-yl)-1-(2-Chlorophenyl)-1H-Imidazole-2(3H)-Thione] | 15.5 ± 0.44 µM | 180 to 182 °C | 17.3 ± 0.35 µM | 7.38 ± 0.48 µM | 3.42 ± 0.23 µM | – | 0.84 ± 0.02 µM | – | 61.18 ± 2% | 79.95 ± 2% | – | – | – | 1.51 to 7.38 µM |
| S=c1[nH]c(-n2nnc3ccccc32)cn1-c1cccc(Cl)c1 [BI8, 4-(1H-Benzo[d][1,2,3]Triazol-1-yl)-1-(3-Chlorophenyl)-1H-Imidazole-2(3H)-Thione] | 2.66 ± 0.08 µM | 120 to 122 °C | 39.8 ± 1.91 µM | 2.1 ± 0.14 µM | 5.12 ± 0.35 µM | 1.51 to 15.5 µM | 3.05 µM | – | 59.74± 2% | 82.13 ± 2% | – | – | – | 1.51 to 7.38 µM |
| Fc1ccccc1N1CC(n2nnc3ccccc32)=NC1=S [BI10, 4-(1H-Benzo[d][1,2,3]Triazol-1-yl)-1-(2-Florophenyl)-1H-Imidazole-2(3H)-Thione] | – | 196 to 198 °C | – | – | – | – | – | – | – | – | – | – | – | – |
| S=c1[nH]c(-n2nnc3ccccc32)cn1-c1ccc(Br)cc1 [BI11, 4-(1H-Benzo[d][1,2,3]Triazol-1-yl)-1-(4-Bromophenyl)-1H-Imidazole-2(3H)-Thione] | 38.2 ± 1.09 µM | 267 to 269 °C | 47.8 ± 2.29 µM | 17.4 ± 1.12 µM | 11.5 ± 0.11 µM | 11.5 to 38.2 µM | – | – | – | – | – | – | – | – |
| NS(=O)(=O)c1ccc(-n2cc(-n3nnc4ccccc43)[nH]c2=S)cc1 [BI12, 4-(4-(1H-Benzo[d][1,2,3]Triazol-1-yl)-2-Thioxo-2,3-Dihydro-1H-Imidazol-1-yl)Benzenesulfonamide] | 6.1 ± 0.75 µM | 217 to 219 °C | 25.1 ± 1.2 µM | 7.83 ± 0.5 µM | 0.9 ± 0.06 µM | – | 0.784 ± 0.02 µM | – | 64.67 ± 2% | 80.26 ± 2% | – | – | – | – |
